Holding throughout (set-up): species or system Haemonchus contortus
The subject of experiment [1] is exsheathed third-stage larvae (xL3s) of H. contortus. The experiment in a line: abnormal larval phenotype / worm morphology assessment. The following applies: 168 h; for Abnormal Phenotype: exhibited at 50 µM. The procedure: (§1) The prioritised compounds were purchased from MolPort and evaluated for their activity by estimating their IC50 values and MMIs against xL3s of H. contortus (Haecon-5 strain) using an established method. In brief, xL3s were dispensed in 96-well plates (cat. no. 3596; Corning, Corning, NY, USA) at a density of 300 xL3s per well with individual, serially diluted compounds (9-points; 2-fold serial dilution; 50 µM to […]), in a final volume of 100 µL of LB* (= sterile lysogenic broth [LB] supplemented with 100 IU/mL penicillin, 100 µg/mL streptomycin and 0.25 µg/mL amphotericin B [Fungizone®, Thermo Fisher Scientific, Waltham, MA, USA]). Plates containing xL3s were incubated at 38 °C, 10% (v/v) CO2 and >90% relative humidity. Following 168 h of incubation, the compounds were tested by three independent experiments in triplicate. The xL3s motility and development to fourth-stage larvae (L4s) were measured with reference to two commercial anthelmintics, monepantel (Zolvix^TM; Elanco, Greenfield, IN, USA) and moxidectin (Cydectin®; Virbac, Carros, France). Negative control wells containing 0.25% (v/v) DMSO were present on all plates. […] Compound concentrations were log10-transformed and fitted using a variable slope four-parameter equation, constraining the highest value to 100% and employing a least squares (ordinary) fit model as implemented in GraphPad Prism software (v.10.0.1). A one-way analysis of variance (ANOVA) with a Dunnett’s multiple comparison test was used to establish statistically significant differences in larval motility and in development.

The test system is the same in experiment [2]. The experiment in a line: xL3 larval motility dose-response assay. The following applies: xL3s; for IC50: 168 h of exposure, three independent assays in triplicate, read-out: Larval Motility IC50. The method, then: as §1
Experiment [3] shares this test system. The experiment in a line: xL3 larval development (to L4) assay. The following applies: for IC50: Haemonchus contortus, read-out: Larval Development IC50. The procedure: as §1
The mark [4] stands for this setting: Haemonchus contortus, 168 h, 168 h, at 50 µM, read-out: Larval motility maximal inhibition (MI; MMI) (converted).

In general, inhibition refers to the drop in the measured response relative to a control, in per cent. The term IC50 denotes the midpoint of a concentration-inhibition curve. On to `COC(=O)c1ccc(-c2cc(C#N)ccn2)cc1` [Compound 1, Methyl 4-(4-cyanopyridin-2-yl)benzoate], for which the “Larvae with abnormal phenotype (exhibited at 50 µM)” value in experiment [1] (50 µM) worked out at 20%. Moreover, in experiment [1], the “Abnormal Phenotype” value was “curved (Cur) and Evi”. Moreover, the inhibition at 50 µM in experiment [2] (setting [4]) was 50%. Besides, the concentration for half-maximal inhibition (IC50) in experiment [2] (Haemonchus contortus, 168 h) was 6.2 ± 0.3 µM; in experiment [3] (xL3s, 168 h of exposure), > 50 µM. The “inhibition of larval development (in words)” value in experiment [3] (168 h) is “not inhibited”.
Consider `N=C(N)c1ccc(N2CCOCC2)cc1` [Compound 2, 4-(Morpholin-4-yl)benzene-1-carboximidamide], for which the “Abnormal Phenotype” value in experiment [1] is reported as “nil”. Also, the inhibition at up to 50 µM in experiment [2] (setting [4]) is 53%. Also, the concentration for half-maximal inhibition (IC50) is 1.8 ± 1.4 µM in experiment [2] (Haemonchus contortus, 168 h) and > 50 µM in experiment [3] (xL3s, 168 h of exposure).
For the compound `O=C(CCC(F)(F)F)NCCc1cnccn1` [Compound 5, 4,4,4-Trifluoro-N-[2-(pyrazin-2-yl)ethyl]butanamide], the “Abnormal Phenotype” value in experiment [1] is “nil”. For the same compound, the inhibition at 50 µM in experiment [2] (setting [4]) is 65%. Moreover, the IC50 was 37.5 ± 2.5 µM in experiment [2] (Haemonchus contortus, 168 h) and > 50 µM in experiment [3] (xL3s, 168 h of exposure).
On the same counts, the results for `N#Cc1ccc(N2CCC(O)CC2)cc1` [Compound 7, 4-(4-Hydroxypiperidin-1-yl)benzonitrile] are “nil”, 70%, 2.1 ± 3.5 µM and > 50 µM.
On the same counts, the results for `CC12CN3CN(C1)CC(c1ccccc1)(C3)C2=O` [Compound 8, (1S,5R,7S)-5-Methyl-7-phenyl-1,3-diazatricyclo[3.3.1.1³,⁷]decan-6-one] are “nil”, 42%, 0.8 ± 1.6 µM and > 50 µM.
On the same counts, the results for `N#Cc1ccc(NC(=O)COCC(=O)NCC(N)=O)cc1` [Compound 9, N-(Carbamoylmethyl)-2-{[(4-cyanophenyl)carbamoyl]methoxy}acetamide] are “nil”, 46%, 4.1 µM and > 50 µM.
Regarding `CO/N=C1\C[C@]2(C[C@@H]3C[C@@H](C/C=C(\C)C[C@@H](C)/C=C/C=C4\CO[C@@H]5[C@H](O)C(C)=C[C@@H](C(=O)O3)[C@]45O)O2)O[C@H](/C(C)=C/C(C)C)[C@H]1C` [Moxidectin, (1R,4S,4'E,5'S,6R,6'S,8R,10E,13R,14E,16E,20R,21R,24S)-21,24-dihydroxy-4'-methoxyimino-5',11,13,22-tetramethyl-6'-[(E)-4-methylpent-2-en-2-yl]spiro[3,7,19-trioxatetracyclo[15.6.1.14,8.020,24]pentacosa-10,14,16,22-tetraene-6,2'-oxane]-2-one, reference compound], the “Abnormal Phenotype” value in experiment [1] is given as “nil”. The half-inhibitory concentration (IC50) in experiment [2] (Haemonchus contortus, 168 h) was 0.5 µM; in experiment [2], 0.8 ± 0.4 µM; in experiment [3] (xL3s, 168 h of exposure) it was 45 µM. Besides, the “Larval motility maximal inhibition (MI; MMI)” value in experiment [2] (168 h, at 50 µM) was 75%; in experiment [2] (168 h, at 50 µM, listed as moxidectin), 5%. Also, the “Larval development maximal inhibition (MI)” value in experiment [3] (xL3s, 168 h of exposure) stood at 100%.

These data come from publication PMC11988817, “Prediction and Prioritisation of Novel Anthelmintic Candidates from Public Databases Using Deep Learning and Available Bioactivity Data Sets” (International Journal of Molecular Sciences, 2025).
